pEC50: −log10 of the molar value.
How the values were obtained:
[1] = test system: intramacrophage L. donovani amastigotes; assay: L. donovani amastigote proliferation within primary mouse macrophages; format: cell-based; details: Leishmania donovani, Macrophage
[2] = dissolution study and supersaturation stability in FASSIF; format: physicochemical
[3] = metabolite profile in dog hepatocytes; format: in vitro ADME; details: 10 μM of 1 for 4 h, UV 250 nm, normalized to largest peak
[4] = metabolite profile in monkey hepatocytes; format: in vitro ADME; details: 10 μM of 1 for 4 h, UV 250 nm, normalized to largest peak
human CYP2D6 = human CYP2D6 (Homo sapiens, UniProt P10635); details: human recombinant CYP; 1 µM, 30 min
[5] = test system: T. brucei bloodstream form overexpressing PSMB5 Y113F; assay: growth inhibition of T. brucei overexpressing PSMB5 Y113F; format: cell-based
Source text: Generation of T. brucei strains ectopically expressing proteasome β4 and β5 subunit variants
All the T. brucei proteasome mutants were generated by following protocols described earlier (Khare et
assembly technology (NEBuilder high fidelity DNA assembly cloning kit). The sense (5′-
Y113F gene was generated from the wild-type PSMB5 construct by site-directed mutagenesis using
mutagenic sense (5′- [sequence]tcgta[sequence]-3′), antisense (5′-
[sequence]-3′) primers and QuikChange II Site-Directed Mutagenesis Kit
(Stratagene). The sequences of the wild-type and mutant PSMB5 genes were verified by sequencing and
both gene versions were cloned into the T. brucei expression vector pHD1034 under control of a
ribosomal RNA promoter. Transfected T. brucei Lister 427 cells were selected in medium supplemented
with puromycin at 1 μg/ml. Susceptibility of transfected T. brucei cell lines to compounds was assessed
after 2 days of compound treatment. Parasite viability was determined with CellTiter-Glo. All assays were
carried out in three biological replicates. Reported EC50 values for T. brucei parasites ectopically
expressing PSMB5 proteins were calculated from three technical replicates.
inhibition of T. brucei bloodstream form constitutively overexpressing wild -type PSMB5 or PSMBY113F

hr Ad1 = biological target: T1, hr Ad1 (Homo sapiens, UniProt P30542); assay: receptor profile (Table S4); format: binding
T1 sequence (P30542 1-326): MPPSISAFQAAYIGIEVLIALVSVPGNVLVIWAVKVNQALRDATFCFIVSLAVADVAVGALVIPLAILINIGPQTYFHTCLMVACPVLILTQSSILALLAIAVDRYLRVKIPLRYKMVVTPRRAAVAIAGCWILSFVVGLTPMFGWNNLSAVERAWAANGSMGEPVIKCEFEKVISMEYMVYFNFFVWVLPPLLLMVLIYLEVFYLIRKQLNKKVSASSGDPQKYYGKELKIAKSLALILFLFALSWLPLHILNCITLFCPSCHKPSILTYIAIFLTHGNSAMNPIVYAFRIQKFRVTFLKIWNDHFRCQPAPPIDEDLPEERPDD

hr Al2A ag = biological target: T2, hr Al2A ag (Homo sapiens, UniProt P08913); assay: receptor profile (Table S4); format: biochemical
T2 sequence (P08913 1-465): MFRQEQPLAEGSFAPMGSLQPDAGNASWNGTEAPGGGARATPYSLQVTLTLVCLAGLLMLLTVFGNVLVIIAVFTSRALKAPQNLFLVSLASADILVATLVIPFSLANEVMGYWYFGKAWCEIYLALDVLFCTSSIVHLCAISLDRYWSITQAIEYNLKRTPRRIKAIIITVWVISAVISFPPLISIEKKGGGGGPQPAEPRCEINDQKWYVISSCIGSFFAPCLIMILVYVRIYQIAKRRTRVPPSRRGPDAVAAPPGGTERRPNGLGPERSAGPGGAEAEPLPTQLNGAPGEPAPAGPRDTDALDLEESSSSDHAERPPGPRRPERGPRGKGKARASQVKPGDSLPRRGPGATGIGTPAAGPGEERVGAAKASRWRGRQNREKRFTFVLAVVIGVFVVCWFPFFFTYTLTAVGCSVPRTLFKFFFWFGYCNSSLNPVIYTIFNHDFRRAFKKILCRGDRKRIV

hr H3 = hr H3 (Homo sapiens, UniProt Q9Y5N1); assay: receptor profile (Table S4); format: binding
hr 5-HT2C = biological target: T3, hr 5-HT2C (Homo sapiens, UniProt P28335); assay: receptor profile (Table S4); format: binding
T3 sequence (P28335 33-458): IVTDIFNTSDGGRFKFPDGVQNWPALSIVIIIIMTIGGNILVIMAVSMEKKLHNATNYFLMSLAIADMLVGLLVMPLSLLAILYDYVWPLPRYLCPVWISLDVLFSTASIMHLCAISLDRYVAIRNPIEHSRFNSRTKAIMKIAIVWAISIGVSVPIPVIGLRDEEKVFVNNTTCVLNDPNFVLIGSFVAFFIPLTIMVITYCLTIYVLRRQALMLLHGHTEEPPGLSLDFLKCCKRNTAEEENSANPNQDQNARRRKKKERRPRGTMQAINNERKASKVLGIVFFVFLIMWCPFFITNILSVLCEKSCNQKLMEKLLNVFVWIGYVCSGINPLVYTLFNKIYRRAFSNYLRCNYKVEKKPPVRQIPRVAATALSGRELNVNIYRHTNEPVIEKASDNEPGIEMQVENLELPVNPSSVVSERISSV

hr M1 = biological target: T4, hr M1 (Homo sapiens, UniProt P11229); assay: receptor profile (Table S4); format: binding
T4 sequence (P11229 1-460): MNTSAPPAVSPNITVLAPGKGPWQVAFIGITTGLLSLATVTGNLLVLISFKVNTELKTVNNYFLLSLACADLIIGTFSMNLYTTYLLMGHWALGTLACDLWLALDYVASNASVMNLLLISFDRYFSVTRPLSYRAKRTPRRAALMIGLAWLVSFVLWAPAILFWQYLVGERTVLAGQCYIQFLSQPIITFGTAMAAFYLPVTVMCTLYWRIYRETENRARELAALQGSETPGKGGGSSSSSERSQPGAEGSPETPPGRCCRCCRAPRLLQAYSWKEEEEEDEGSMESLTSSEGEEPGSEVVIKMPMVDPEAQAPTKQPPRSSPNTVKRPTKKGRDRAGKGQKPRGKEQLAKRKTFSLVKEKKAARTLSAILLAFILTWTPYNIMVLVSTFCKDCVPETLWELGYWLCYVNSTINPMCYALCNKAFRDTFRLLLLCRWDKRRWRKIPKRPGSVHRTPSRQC

hr M3 = hr M3 (Homo sapiens, UniProt P20309); assay: receptor profile (Table S4); format: binding
hr MC3 = hr MC3 (Homo sapiens, UniProt P41968); assay: receptor profile (Table S4); format: binding
hr EGFR = hr EGFR (Homo sapiens, UniProt P00533); assay: receptor profile (Table S4); format: biochemical
Chain of hr EGFR (P00533 25-1210): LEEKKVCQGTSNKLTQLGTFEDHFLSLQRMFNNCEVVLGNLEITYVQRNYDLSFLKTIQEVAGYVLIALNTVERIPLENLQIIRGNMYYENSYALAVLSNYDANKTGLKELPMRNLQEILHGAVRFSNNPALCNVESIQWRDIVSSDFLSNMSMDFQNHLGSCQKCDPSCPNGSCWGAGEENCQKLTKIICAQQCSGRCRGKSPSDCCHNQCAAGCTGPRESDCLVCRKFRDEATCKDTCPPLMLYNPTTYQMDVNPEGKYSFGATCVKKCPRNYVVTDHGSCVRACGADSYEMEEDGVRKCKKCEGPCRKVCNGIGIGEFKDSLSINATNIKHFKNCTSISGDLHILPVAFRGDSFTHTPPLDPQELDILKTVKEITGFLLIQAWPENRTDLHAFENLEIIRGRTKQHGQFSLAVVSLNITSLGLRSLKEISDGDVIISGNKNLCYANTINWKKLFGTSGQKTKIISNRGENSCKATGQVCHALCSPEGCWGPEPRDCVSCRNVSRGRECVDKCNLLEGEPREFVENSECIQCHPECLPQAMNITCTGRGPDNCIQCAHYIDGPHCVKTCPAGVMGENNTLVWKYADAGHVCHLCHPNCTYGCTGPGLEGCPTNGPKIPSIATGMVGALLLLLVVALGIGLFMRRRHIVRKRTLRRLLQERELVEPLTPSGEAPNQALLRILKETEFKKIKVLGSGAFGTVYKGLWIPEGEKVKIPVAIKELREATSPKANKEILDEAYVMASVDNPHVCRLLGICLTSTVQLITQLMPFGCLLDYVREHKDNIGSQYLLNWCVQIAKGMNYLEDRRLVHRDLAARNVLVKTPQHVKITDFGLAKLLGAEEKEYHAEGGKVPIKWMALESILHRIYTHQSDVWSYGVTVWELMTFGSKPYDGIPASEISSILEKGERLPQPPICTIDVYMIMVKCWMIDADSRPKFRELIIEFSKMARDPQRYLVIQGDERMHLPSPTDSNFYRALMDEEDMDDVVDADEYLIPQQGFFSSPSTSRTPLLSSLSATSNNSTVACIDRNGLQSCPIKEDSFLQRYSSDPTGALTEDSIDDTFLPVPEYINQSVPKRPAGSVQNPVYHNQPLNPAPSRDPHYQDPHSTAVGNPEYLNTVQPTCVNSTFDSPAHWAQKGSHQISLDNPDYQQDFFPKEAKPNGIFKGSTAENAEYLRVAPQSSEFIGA

Chain of hr H3 (Q9Y5N1 whole entry): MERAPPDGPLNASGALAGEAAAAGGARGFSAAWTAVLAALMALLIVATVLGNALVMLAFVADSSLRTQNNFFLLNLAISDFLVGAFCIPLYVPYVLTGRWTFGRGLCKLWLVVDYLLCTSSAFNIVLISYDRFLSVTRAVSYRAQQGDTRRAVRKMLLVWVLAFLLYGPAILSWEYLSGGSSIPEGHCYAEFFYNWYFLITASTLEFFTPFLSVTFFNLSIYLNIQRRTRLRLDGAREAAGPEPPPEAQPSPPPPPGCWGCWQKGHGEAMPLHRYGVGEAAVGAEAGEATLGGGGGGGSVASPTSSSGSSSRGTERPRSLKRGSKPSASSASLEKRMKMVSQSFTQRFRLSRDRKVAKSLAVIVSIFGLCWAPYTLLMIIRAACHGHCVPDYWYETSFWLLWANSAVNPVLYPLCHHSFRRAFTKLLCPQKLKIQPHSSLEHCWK
Chain of hr MC3 (P41968 whole entry): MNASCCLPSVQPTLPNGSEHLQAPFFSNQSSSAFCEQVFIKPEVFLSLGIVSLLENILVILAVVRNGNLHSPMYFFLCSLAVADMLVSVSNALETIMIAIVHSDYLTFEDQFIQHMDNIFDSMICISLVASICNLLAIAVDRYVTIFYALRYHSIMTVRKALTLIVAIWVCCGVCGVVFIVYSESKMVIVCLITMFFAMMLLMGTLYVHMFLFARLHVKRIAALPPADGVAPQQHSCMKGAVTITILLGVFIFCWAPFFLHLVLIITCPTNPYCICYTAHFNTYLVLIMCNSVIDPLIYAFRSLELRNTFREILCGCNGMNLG
Chain of hr M3 (P20309 whole entry): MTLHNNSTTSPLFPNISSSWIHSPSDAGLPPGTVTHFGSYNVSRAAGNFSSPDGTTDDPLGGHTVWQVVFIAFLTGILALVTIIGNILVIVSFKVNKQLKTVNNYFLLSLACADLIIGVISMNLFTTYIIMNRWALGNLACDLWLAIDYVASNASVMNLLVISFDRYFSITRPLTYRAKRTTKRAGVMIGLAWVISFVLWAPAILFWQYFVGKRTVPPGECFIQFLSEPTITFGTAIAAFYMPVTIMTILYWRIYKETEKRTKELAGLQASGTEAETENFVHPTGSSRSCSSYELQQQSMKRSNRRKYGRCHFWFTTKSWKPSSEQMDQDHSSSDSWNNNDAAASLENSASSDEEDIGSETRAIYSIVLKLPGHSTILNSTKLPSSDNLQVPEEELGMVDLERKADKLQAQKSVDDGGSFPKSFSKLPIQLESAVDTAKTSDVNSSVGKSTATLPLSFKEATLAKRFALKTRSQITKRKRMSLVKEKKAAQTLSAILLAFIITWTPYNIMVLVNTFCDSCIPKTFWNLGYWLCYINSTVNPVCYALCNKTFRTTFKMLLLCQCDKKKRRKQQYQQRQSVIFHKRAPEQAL
Chain of human CYP2D6 (P10635 whole entry): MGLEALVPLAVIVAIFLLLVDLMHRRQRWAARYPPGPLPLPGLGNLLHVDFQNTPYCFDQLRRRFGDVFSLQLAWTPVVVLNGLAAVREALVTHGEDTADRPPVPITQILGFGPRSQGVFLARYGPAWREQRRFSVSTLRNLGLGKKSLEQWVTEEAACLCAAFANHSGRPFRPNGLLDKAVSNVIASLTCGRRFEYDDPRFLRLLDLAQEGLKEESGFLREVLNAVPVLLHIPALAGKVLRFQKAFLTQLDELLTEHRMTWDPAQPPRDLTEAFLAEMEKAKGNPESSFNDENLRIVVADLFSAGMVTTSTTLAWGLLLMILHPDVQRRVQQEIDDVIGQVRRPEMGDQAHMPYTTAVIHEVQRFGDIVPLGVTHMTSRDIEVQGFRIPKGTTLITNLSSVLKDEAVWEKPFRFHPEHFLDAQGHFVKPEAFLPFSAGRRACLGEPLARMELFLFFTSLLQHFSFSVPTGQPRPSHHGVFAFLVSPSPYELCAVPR

Cc1nc(C)c(C(=O)Nc2ccc(F)c(-c3nc4ncc(-c5ncccc5C)cn4n3)c2)o1 [compound 1, N-(4-Fluoro-3-(6-(3-methylpyridin-2-yl)-[1,2,4]triazolo[1,5-a]pyrimidin-2-yl)phenyl)-2,4-dimethyloxazole-5-carboxamide]
pEC50 [1]: 7.40 | concentration in FASSIF (supersaturation) ([2]; fumarate cocrystal of 1, FASSIF, at 16 min): 73 µM | dissolution rate ([2]; fumarate cocrystal of 1 vs free base of 2, Figure 1): significantly higher dissolution rate | abundance dog [3]: +++ (+++ > 75%) | abundance monkey [4]: +++ (+++ > 75%) | substrate of human CYP2D6 (human CYP2D6): not a substrate | effect of β5 Y113F mutation of T. brucei proteasome on activity ([5]; T. brucei, β5 Y113F): loss of activity | pEC50 ([5]; Trypanosoma brucei, 48 h, read-out: EC50, T. brucei growth): 5.48 | EC50/IC50 (hr Ad1; hr Ad1): > 30 µM | inhibition at 10 µM (hr Ad1; read-out: % inh/act @ 10 µM): 10% | inhibition at 30 µM (hr Ad1; read-out: % inh/act @ 30 µM): 27% | EC50/IC50 (hr Al2A ag; hr Al2A ag): > 30 µM | inhibition at 10 µM (hr Al2A ag; read-out: % inh/act @ 10 µM): 0% | inhibition at 30 µM (hr Al2A ag; read-out: % inh/act @ 30 µM): 0% | EC50/IC50 (hr H3; hr H3): > 30 µM | inhibition at 10 µM (hr H3; read-out: % inh/act @ 10 µM): 9% | inhibition at 30 µM (hr H3; read-out: % inh/act @ 30 µM): 14% | EC50/IC50 (hr 5-HT2C; hr 5-HT2C): > 30 µM | inhibition at 10 µM (hr 5-HT2C; read-out: % inh/act @ 10 µM): 9% | inhibition at 30 µM (hr 5-HT2C; read-out: % inh/act @ 30 µM): 8% | EC50/IC50 (hr M1; hr M1): > 30 µM | inhibition at 10 µM (hr M1; read-out: % inh/act @ 10 µM): 25% | inhibition at 30 µM (hr M1; read-out: % inh/act @ 30 µM): 26% | EC50/IC50 (hr M3; hr M3): > 30 µM | inhibition at 10 µM (hr M3; read-out: % inh/act @ 10 µM): 17% | inhibition at 30 µM (hr M3; read-out: % inh/act @ 30 µM): 25% | EC50/IC50 (hr MC3; hr MC3): > 30 µM | inhibition at 10 µM (hr MC3; read-out: % inh/act @ 10 µM): 10% | inhibition at 30 µM (hr MC3; read-out: % inh/act @ 30 µM): 24% | EC50/IC50 (hr EGFR; hr EGFR): > 30 µM | inhibition at 10 µM (hr EGFR; read-out: % inh/act @ 10 µM): 16% | inhibition at 30 µM (hr EGFR; read-out: % inh/act @ 30 µM): 17%

Source: PMC7549094 (Journal of Medicinal Chemistry, 2020)
